Common to all, as to assay type: ADME
Series [1] can be described thus: The compound was evaluated for the apparent first-order rate of reaction of ONOO- with antioxidant.
Series [2] is described as follows: The compound was evaluated for the apparent first-order rate of reaction of ONOO- with antioxidant in presence of catalyst.
Series [3] is described as follows: The compound was evaluated for the rate of oxoMn (IV) reduction.

On to `O=C1O[C@H]([C@@H](O)CO)C(O)=C1O` [ASCORBIC ACID], for which the kONOO- in series [1] came to 88 M⁻¹ s⁻¹. For the same compound, the k cat in series [2] came out at 2200000 M⁻¹ s⁻¹. Further, in series [3], the kred came to 54000000 M⁻¹ s⁻¹.
As to `N[C@@H](CCC(=O)N[C@@H](CS)C(=O)NCC(=O)O)C(=O)O` [GLUTATHIONE], the kONOO- in series [1] was 580 M⁻¹ s⁻¹. Moreover, the k cat in series [2] was 3200000 M⁻¹ s⁻¹. This compound also registered a kred in series [3] of 130000 M⁻¹ s⁻¹.
The like results for `Cc1c(C)c2c(c(C)c1O)CCC(C)(C(=O)O)O2` (centres undefined) [TROLOX] were, in that order, 33 M⁻¹ s⁻¹, 1100000 M⁻¹ s⁻¹ and 7000000 M⁻¹ s⁻¹.

The values are drawn from ChEMBL document CHEMBL1129224, “Rapid decomposition of peroxynitrite by manganese porphyrin-antioxidant redox couples” (Bioorg Med Chem Lett, 1997).
